System: yeast genes (level of expressed mRNA)
Assay: DNA chip analysis of expressed mRNA of yeast genes after 2 h culture with a toxic chemical substance
Type: cell-based, Saccharomyces cerevisiae S288C
Protocol: Yeast (Saccharomyces cerevtisiae S288C (α SUC2mal mel gap2 CUP1)) were cultured at 25° C. on YPD medium (yeast extract 1%, polypepton 2%, glucose 2%). One of toxic chemical substances was added to the cell at logarithmic growth phase, and the cell was further cultured for two hours. Cell was cultured without any chemical substance in the same condition, and was used as control. Concentrations of the chemical substances were defined to inhibit the growth of the yeast but not lead to death.
After the completion of cultivation, the culture was centrifuged to collect the cells. To the cells, sodium acetate buffer (50 mM sodium acetate, 10 mM EDTA, 1% SDS) was added, and the mixture was shaken at 65° C. for five minutes, followed by returning to room temperature, and obtaining the supernatant, which procedure was repeated two times. To the supernatant, ½ amount of a solution of phenol/chloroform was added, and the mixture was centrifuged to give a supernatant, which was added with an equal amount of chloroform, and the mixture was centrifuged to give a supernatant. To the supernatant, an equal amount of isopropanol containing 0.3 M sodium acetate was added, and the mixture was allowed to stand at room temperature for 30 minutes, after which the mixture was centrifuged to give a sediment of the whole RNAs. Seventy % ethanol was added to the sediment, and the mixture was again centrifuged to give a sediment, which was then dried and dissolved in water. mRNA was isolated from the whole RNAs as followings. In view of the fact that a poly A chain is attached to the 3′ terminus of mRNA, a polynucleotide having a poly T structure which was immobilized on the surface of latex beads was used to trap the mRNA, and then the mRNA was washed and eluted with spine column (Oligotex-dT30<Super>mRNA Purification Kit, Takara). Reverse transcription of the mRNA was conducted with a reverse transcriptase (Super Script II Reverse Transcriptase; catalogue No. 18064-014, GibcoBRL) using fluorescence-labeled nucleotides to give cDNAs that were introduced with Cy3-dUTP or Cy5-dUTP during the reverse transcription.
The labeled cDNAs were dissolved in TE buffer (10 mM Tris-HCl/1 mM EDTA, pH8.0), and the solution was dropped on the DNA chip containing the whole genes of yeast (DNA Chip Research Inc. Japan) so that the cDNAs were hybridized on the DNA chip at 65° C. for over 12 hours. The fluoresces intensity of the DNA chip was read with a scanner, and the ratio relative to the fluorescence intensity resulting from the absence of chemical substance was estimated as the following, which is shown in Tables 1 to 9: [formula]
In the Tables, “Intensity” indicated in the rightmost column is a value of the level of expressed mRNA of each gene in control cells as divided by the average level of the expressions of the whole genes.

COc1cc(CNC(=O)CCCCC=CC(C)C)ccc1O [(12), 8-methyl-N-vanillyl-6-nonenamide]
1.2: level of expressed mRNA in the presence of chemical substance/in its absence (gene YMR272C) | level of expressed mRNA in the presence of chemical substance/in its absence (gene YNR002C) | level of expressed mRNA in the presence of chemical substance/in its absence (gene YOL143C) | level of expressed mRNA in the presence of chemical substance/in its absence (gene YOL157C) | level of expressed mRNA in the presence of chemical substance/in its absence (gene YOR136W)
0.7: The level of expressed mRNA in the presence of chemical substance/absence: YMR068W (gene YMR068W) | The level of expressed mRNA in the presence of chemical substance/absence: YMR071C (gene YMR071C) | level of expressed mRNA in the presence of chemical substance/in its absence (gene YNL322C) | The level of expressed mRNA in the presence of chemical substance/absence: YOR253W (gene YOR253W)
1.1: level of expressed mRNA in the presence of chemical substance/in its absence (gene YML110C) | level of expressed mRNA in the presence of chemical substance/in its absence (gene YNL104C) | level of expressed mRNA in the presence of chemical substance/in its absence (gene YNR033W) | level of expressed mRNA in the presence of chemical substance/in its absence (gene YOL126C) | level of expressed mRNA in the presence of chemical substance/in its absence (gene YOR099W)
1.8: level of expressed mRNA in the presence of chemical substance/in its absence (gene YNL231C)
1.7: level of expressed mRNA in the presence of chemical substance/in its absence (gene YMR105C)
0.9: The level of expressed mRNA in the presence of chemical substance/absence: YML118W (gene YML118W) | The level of expressed mRNA in the presence of chemical substance/absence: YMR114C (gene YMR114C) | The level of expressed mRNA in the presence of chemical substance/absence: YMR258C (gene YMR258C) | The level of expressed mRNA in the presence of chemical substance/absence: YNL026W (gene YNL026W) | level of expressed mRNA in the presence of chemical substance/in its absence (gene YNL045W) | level of expressed mRNA in the presence of chemical substance/in its absence (gene YNL130C) | The level of expressed mRNA in the presence of chemical substance/absence: YNL200C (gene YNL200C) | The level of expressed mRNA in the presence of chemical substance/absence: YNL276C (gene YNL276C) | The level of expressed mRNA in the presence of chemical substance/absence: YNR051C (gene YNR051C) | The level of expressed mRNA in the presence of chemical substance/absence: YOL026C (gene YOL026C) | The level of expressed mRNA in the presence of chemical substance/absence: YOL030W (gene YOL030W) | level of expressed mRNA in the presence of chemical substance/in its absence (gene YOR130C) | The level of expressed mRNA in the presence of chemical substance/absence: YOR138C (gene YOR138C) | The level of expressed mRNA in the presence of chemical substance/absence: YOR267C (gene YOR267C) | The level of expressed mRNA in the presence of chemical substance/absence: YOR325W (gene YOR325W)
1.0: The level of expressed mRNA in the presence of chemical substance/absence: YMR115W (gene YMR115W) | The level of expressed mRNA in the presence of chemical substance/absence: YMR160W (gene YMR160W) | The level of expressed mRNA in the presence of chemical substance/absence: YNL058C (gene YNL058C) | The level of expressed mRNA in the presence of chemical substance/absence: YNL063W (gene YNL063W) | level of expressed mRNA in the presence of chemical substance/in its absence (gene YNL169C) | level of expressed mRNA in the presence of chemical substance/in its absence (gene YNR019W) | level of expressed mRNA in the presence of chemical substance/in its absence (gene YOR336W)
0.8: level of expressed mRNA in the presence of chemical substance/in its absence (gene YMR296C) | level of expressed mRNA in the presence of chemical substance/in its absence (gene YNL106C) | The level of expressed mRNA in the presence of chemical substance/absence: YNL181W (gene YNL181W) | The level of expressed mRNA in the presence of chemical substance/absence: YNL212W (gene YNL212W) | The level of expressed mRNA in the presence of chemical substance/absence: YNL253W (gene YNL253W) | The level of expressed mRNA in the presence of chemical substance/absence: YNL265C (gene YNL265C) | level of expressed mRNA in the presence of chemical substance/in its absence (gene YNR059W) | The level of expressed mRNA in the presence of chemical substance/absence: YOR022C (gene YOR022C) | The level of expressed mRNA in the presence of chemical substance/absence: YOR087W (gene YOR087W)
0.6: level of expressed mRNA in the presence of chemical substance/in its absence (gene YMR189W) | The level of expressed mRNA in the presence of chemical substance/absence: YNL176C (gene YNL176C) | The level of expressed mRNA in the presence of chemical substance/absence: YOR088W (gene YOR088W)
0.5: The level of expressed mRNA in the presence of chemical substance/absence: YNL191W (gene YNL191W) | The level of expressed mRNA in the presence of chemical substance/absence: YNL194C (gene YNL194C) | The level of expressed mRNA in the presence of chemical substance/absence: YOR155C (gene YOR155C)
1.3: level of expressed mRNA in the presence of chemical substance/in its absence (gene YMR271C) | level of expressed mRNA in the presence of chemical substance/in its absence (gene YNL012W) | level of expressed mRNA in the presence of chemical substance/in its absence (gene YNL037C) | level of expressed mRNA in the presence of chemical substance/in its absence (gene YOL058W)
1.9: level of expressed mRNA in the presence of chemical substance/in its absence (gene YOL153C)

Source: US20050112573A1, “Method of detecting toxic substance” (priority 2001, published 2005)
